In patent publication US8215314B2, “Photochemical tissue bonding” (The General Hospital Corporation, priority 2000, dated 2012):

Columns and labels:
[1] = test system: corneal incision, rabbit eyes ex vivo; experiment: IOP required to produce fluid leakage from corneal incision (IOPL) after PTB, ex vivo; conditions: for mean IOPL: RB 1.5 mM, 514 nm
Experimental: PTB can be used to seal or repair a tissue, e.g., a wound, e.g., a corneal wound. This example illustrates the experimental procedure designed to test the efficacy of PTB, as described herein, using mammalian corneas ex vivo. Experiments were performed according to the following procedure.
Rabbit eyes were received on ice (Pel-Freez Biologicals) approximately 17-24 hours after sacrifice and enucleation. The eyes were kept on ice and used the same day. The eye to be studied was mounted on a plastic-covered polystyrene block and fixed in position by needles inserted through the extraocular muscles into the polystyrene. The eye was then placed under a dissecting microscope (Reichert Scientific Instruments, Ill.) allowing visualization of the treated area during the entire procedure. A 27 G needle was inserted parallel to the iris, 2 mm anterior to the limbus into clear cornea, and positioned above the lens in the anterior chamber. The needle was connected to both a blood pressure transducer (Harvard Apparatus, Mass.) and a mini-infuser 400 (Bard Harvard) via a T coupler. The pressure transducer consists of a transducer element that is hard wired to an amplifier box and uses a semi-disposable dome with an integral silicone rubber membrane. Pressure inside the dome is transmitted through the membrane to a plastic button whose motion is translated to a voltage. The voltage generated by the transducer amplifier combination is proportional to the […] intraocular pressure (IOP). Signals from the transducer amplifier were recorded using a Macintosh G3 Power book equipped with a PCMICA (DAQCARD—1200) data acquisition card (National Instruments, Tex.). Data acquisition was controlled using programs written using the LabView 4 software package (National Instruments, Tex.). The voltage from the transducer and amplifier was converted to pressure by calibrating with a standing manometer.
Experiments on individual eyes were initiated by increasing the IOP to 30-40 mm Hg, using water infusion at a rate of 1 mL per minute. An incision was made in the cornea, 1 mm from the limbus and parallel to the iris, using a 3.5 mm angled keratome (Becton Dickinson Co.). For each eye the IOP required to produce fluid leakage from the incision (IOPL) was recorded pre- and post-PTB treatment. A photosensitizer, dissolved in phosphate buffer solution (PBS, pH 7.2, Gibco BRL) was applied to the walls of the incision using a Gastight, 50 μl syringe (Hamilton Co.) with a 27 G needle.
Irradiations employed a continuous wave (CW) argon-ion laser (Innova 100; Coherent, Inc., Palo Alto, Calif.) at 488 nm (for Fl and R-5-P), 514.5 nm (for RB) or 351 nm (for NHPT). An argon-ion-pumped dye laser (CR-599; Coherent) with 4-dicyanomethylene-2-methyl-6-(p-dimethylaminostyryl)-4H-pyran dye (Exciton, Inc., Dayton, Ohio) was used for irradiation at 661 nm (for MB). Laser light was coupled into a 1 mm diameter quartz fiber and a 1 cm diameter spot on the tissue was created by using a combination of 1 and 2 inch focal length, S1-UV grade fused silica, biconvex lenses (Esco Products), mounted in a SM1 series cage assembly (Thorlabs, N.J.). The 1 cm diameter circular spot was sufficient to cover the entire incision and the optics were adjusted so that the laser light was incident on the cornea at an angle approximately 45° to the plane of the incision. Dose response curves were obtained by varying the duration of the irradiation at a constant irradiance. In separate experiments the effects of laser irradiance were investigated by comparison of the same delivered dose using different irradiances. The doses used ranged from 124 to 1524 J/cm^2 and the irradiances used were 0.64, 1.27, 2.55 and 3.86 W/cm^2. The laser exposure time varied from 33 seconds for the lowest dose using the highest irradiance to 26 minutes, 27 seconds for the highest dose using the lowest irradiance. The IOPL was recorded immediately following treatment. […]

[2] = test system: rabbit corneas; experiment: In vivo PTB of 6-mm penetrating keratoplasty incisions anchored by sutures, bursting pressure; conditions: 1% Rose Bengal, 191 J/cm2, 6-mm PK incision with 4-16 sutures
Experimental: PTB was performed in vivo in New Zealand rabbits to repair two types of corneal wounds.
In Group II, 6-mm Penetrating Keratoplasy (PK) incisions anchored by 4-16 sutures were performed in 16 rabbit corneas. Half of the corneas in each group underwent PTB where 1% Rose Bengal dye was applied to the wound edges followed by laser irradiation at fluence of 191 J/cm2. Photoactivation was performed with a 514 nm Argon Laser and a 532-nm CW Nd: YAG laser. Wound leak and incisional bursting pressure were determined in vivo in the immediate postoperative period.

[3] = test system: collagen gel implant on rat latissimus dorsi muscle flap; experiment: Adherence of collagen-based esophagus implant to host muscle flap after PTB, ex vivo; conditions: for adherence of collagen implant on muscle flap: 0.1% RB, 514 nm
Experimental: An ex vivo experimental system was developed to investigate the effect of PTB on the bonding of an engineered, collagen-based, esophagus implant to host muscle flap tissue without the need for silicon tubing.
FIG. 14 provides an overview of the experimental methods. Esophageal keratinocytes were seeded on uncontracted collagen gel (ICN Biomedicals) for about one week until confluence was reached. A 1×1 cm piece of seeded collagen gel was removed (implant) from the culture dish and a suture loop was laced through at its edge. An equivalently-sized section of rat latissimus dorsi muscle flap was secured onto a flat plastic surface with sutures. Rose bengal (RB) at 0.1% (w/v), a photosensitizer having an absorption maximum and absorption coefficient of 550 nm and 33,000 dm^3/mo/cm at 514 nm, respectively, was applied to the collagen side of the implant and the surface of the muscle flap and incubated for about two minutes. The esophagus implant and the muscle flap were approximated with the dye-treated surfaces facing each other by gently pressing over the esophagus implants without damaging the keratinocyte layer. Excess dye was removed by aspiration and blotting. […]
Following irradiation, the adherence of the collagen-based esophageal implant to the host muscle flap was tested for the 50 J/cm^2 sample, 100 J/cm^2 sample, and the three controls, using a tensiometer (Chartillon) coupled to a force transducer (DFA2, Ametek). The adherence (N/cm^2; N=force applied, cm^2=area of collagen implant) of the collagen implant on the muscle flap was determined from the force-deflection curve, generated by plotting the amount of peeling force applied to the collagen implant to the force plate displacement level of the force transducer. It was observe that the mean adherence measurements determined for the negative, RB, and laser controls were 0.05, 0.06, and 0.07 N/cm^2, respectively (FIG. 15). In contrast, the adherence measurements determined for the 50 and 100 J/cm^2 composite samples were 0.15 and 0.13 N/cm^2, respectively (FIG. 15).

## O=C([O-])c1c(Cl)c(Cl)c(Cl)c(Cl)c1-c1c2cc(I)c(=O)c(I)c-2oc2c(I)c([O-])c(I)cc12.[Na+].[Na+] [Rose Bengal]
[1]; 1.5 mM RB and 514 nm laser light
  mean IOPL post-treatment: greater than 300±48 mm Hg
[1]; 1270 J/cm^2 at 1.27 W/cm^2
  mean IOPL: 274 mm Hg
[1]; 1270 J/cm^2 at 2.55 W/cm^2
  mean IOPL: 150 mm Hg
[1]; 1270 J/cm^2 at 3.86 W/cm^2
  mean IOPL: 130 mm Hg
[1]; RB, all doses delivered at 1.27 and 2.55 W/cm^2
  IOPL: greater than 100 mm Hg
[1]; RB, doses below 508 J/cm^2 at any irradiance tested
  rise in IOPL: No significant rise
[1]; photosensitizer alone, no laser irradiation
  increase between pre- and post-treatment IOPL: no significant increase
[2]
  immediate bursting pressure: 410±70 mm Hg
[3]; 0.25 W/cm^2, 50 J/cm^2
  adherence of collagen implant on muscle flap: 0.15 N/cm^2
[3]; 0.25 W/cm^2, 100 J/cm^2
  adherence of collagen implant on muscle flap: 0.13 N/cm^2
[3]; RB control: 0.1% RB treated, nonirradiated
  mean adherence of collagen implant on muscle flap: 0.06 N/cm^2
